Test results: the supplement of paper PMC3493320

Tested on: NCI-H295R
Assay: IC50 (antiproliferative, ATP content)
Conditions: 48 h
In short: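 Adrenocortical carcinoma cells were plated at 1500 per well in 1536-well plates in serum-free DMEM with ITS supplement, left overnight, then given library compounds by pin transfer at 8 final concentrations spanning 0.6 nM to 46 µM and held 48 h at 37 °C, 5% CO2. ATP was measured as CellTiter-Glo luminescence after 20 min at room temperature and scaled between vehicle and positive-control wells. A four-parameter logistic model was fitted to each series. The IC50 was taken from these fits, and compounds without a concentration response were recorded as above the top dose.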

Row | IC50 | Compound
1 | > 46 µM | CN1CCc2c(c3ccccc3n2Cc2ccccc2)C1.CN1CCc2c(c3ccccc3n2Cc2ccccc2)C1.O=S(=O)(O)c1cccc2c(S(=O)(=O)O)cccc12
2 | > 46 µM | CC(C)NC[C@@H](O)COc1cccc2ccccc12
3 | > 46 µM | CCCCNC(=O)NS(=O)(=O)c1ccc(N)cc1
4 | > 46 µM | CC(C)(O/N=C(\C(=O)N[C@@H]1C(=O)N2C(C(=O)[O-])=C(C[n+]3ccccc3)CS[C@H]12)c1csc(N)n1)C(=O)O.O.O.O.O.O
5 | > 46 µM | O=C(O)CCC(=O)Nc1ccc(S(=O)(=O)Nc2nccs2)cc1
6 | > 46 µM | CC1=C(C)C(=O)C(C(CCCCCC(=O)O)c2ccccc2)=C(C)C1=O (configuration not stated)
7 | > 46 µM | Cc1ccc(C(C)(C)c2ccc(C)cc2)cc1
8 | > 46 µM | CCCCNc1ccc(C(=O)OCCN(C)C)cc1.Cl
9 | > 46 µM | CN[C@@H]1[C@H](O)[C@H](NC)[C@H]2O[C@@]3(O)C(=O)C[C@@H](C)O[C@H]3O[C@@H]2[C@H]1O.Cl.Cl
10 | > 46 µM | CC(=O)Nc1ccc(C(=O)O)cc1
11 | > 46 µM | C[C@@H](N)C(=O)O
12 | > 46 µM | CNC(=NC#N)NCCSCc1nc[nH]c1C
13 | > 46 µM | NS(=O)(=O)c1cc(-c2nnn[nH]2)c(NCc2cccs2)cc1Cl
14 | > 46 µM | O=C(O)c1ccccc1OP(=O)(O)O
15 | > 46 µM | NCCC(O)(P(=O)(O)O)P(=O)(O)O
16 | > 46 µM | C[N+](C)(C)CCOC(=O)CCC(=O)OCC[N+](C)(C)C.[Cl-].[Cl-]
17 | > 46 µM | C[C@H](O)C(=O)Nc1c(I)c(C(=O)NC(CO)CO)c(I)c(C(=O)NC(CO)CO)c1I
18 | > 46 µM | Cc1ncc(C[n+]2csc(CCOP(=O)(O)OP(=O)(O)O)c2C)c(N)n1.[Cl-]
19 | > 46 µM | COc1cc2[nH]c(=O)[nH]c(=O)c2cc1OC
20 | > 46 µM | COC(=O)CCC(=O)CN.Cl
21 | > 46 µM | O[C@H]1[C@@H]([C@]2=CC(O)=C(O)C=C2)OC3=C(C(O)=CC(O)=C3)C1
22 | > 46 µM | CC(C)Oc1ccc2c(=O)c(-c3ccccc3)coc2c1
23 | > 46 µM | Cl.O=C(OCC(O)CO)c1ccccc1Nc1ccnc2cc(Cl)ccc12 (configuration not stated)
24 | > 46 µM | C=CC[N@@H+]1/C(=C/CO)[C@@H]2C[C@H]3[C@H]1CC[C@]31c3ccccc3N3C=C4[C@@H]5N(C=C2[C@H]31)c1ccccc1[C@@]51CC[C@H]2[C@H]1C[C@@H]4/C(=C\CO)[N@@H+]2CC=C.[Cl-].[Cl-]
25 | > 46 µM | CC1(C)S[C@@H]2[C@H](NC(=O)C(N)c3ccccc3)C(=O)N2[C@H]1C(=O)OC1OC(=O)c2ccccc21.Cl (some centres not stated)
26 | > 46 µM | Cc1cc(C)c(C=C2C(=O)Nc3ccccc32)[nH]1

Row | IC50 | Compound
27 | > 46 µM | CCCCCCCCCCCCCCCCCC(=O)O
28 | > 46 µM | Cl.NC1=NCC2c3ccccc3Cc3ccccc3N12 (configuration not stated)
29 | > 46 µM | CCn1cc(C(=O)O)c(=O)c2cnc(N3CCNCC3)nc21
30 | > 46 µM | CCOc1ccc2ccccc2c1C(=O)N[C@@H]1C(=O)N2[C@@H]1SC(C)(C)[C@@H]2C(=O)[O-].O.[Na+]
31 | > 46 µM | CC(C)(Oc1ccc(CCNC(=O)c2ccc(Cl)cc2)cc1)C(=O)O
32 | > 46 µM | O=C(O)CCNC(=O)c1ccccc1
33 | > 46 µM | CCCCCCCCCCCCCC(=O)OCC(COP(=O)([O-])OCC[N+](C)(C)C)OC(=O)CCCCCCCCCCCCC (configuration not stated)
34 | > 46 µM | Cc1cc(C)nc(NS(=O)(=O)c2ccc(N)cc2)n1
35 | > 46 µM | NS(=O)(=O)Cc1noc2ccccc12
36 | > 46 µM | CCOC(=O)Nc1ccc2c(c1)N(C(=O)CCN1CCOCC1)c1ccccc1S2.Cl
37 | > 46 µM | O=C3N1/C(=C(/C)CS[C@@H]1[C@@H]3NC(=O)[C@H](N)c2ccc(O)cc2)C(O)=O
38 | > 46 µM | O=c1cc[nH]c(=S)[nH]1
39 | > 46 µM | CC(COc1ccccc1)N(CCCl)Cc1ccccc1 (configuration not stated)
40 | > 46 µM | NC1CCCCC1.NC1CCCCC1.O=P(O)(O)OC[C@H](O)CO
41 | > 46 µM | COc1cc(O)c(C(=O)c2ccccc2)cc1S(=O)(=O)O
42 | > 46 µM | Cc1cc(NS(=O)(=O)c2ccc(N)cc2)nc(C)n1
43 | > 46 µM | CNCCCC1c2ccccc2C=Cc2ccccc21.Cl
44 | > 46 µM | O=c1[n-]c2[nH]c(=O)[nH]c(=O)c2[nH]1.[Na+]
45 | > 46 µM | CC[N+](C)(C)c1cccc(O)c1.[Cl-]
46 | > 46 µM | O=C(O)c1cc(-c2ccc(F)cc2F)ccc1O
47 | > 46 µM | CC(C)C[C@@H](NC(=O)[C@@H](O)[C@H](N)Cc1ccccc1)C(=O)O.Cl
48 | > 46 µM | O=C(O)c1cc(O)c(O)c(O)c1
49 | > 46 µM | C[C@H](NCCc1ccc(O)cc1)[C@H](O)c1ccc(O)cc1.Cl
50 | > 46 µM | CCOC(=O)COc1ccc2c(C)c(CCN(CC)CC)c(=O)oc2c1Cl.Cl
51 | > 46 µM | CC(C(=O)O)c1cccc(C(=O)c2ccccc2)c1 (configuration not stated)
52 | > 46 µM | O=C(O)CN(CCOCCOCCN(CC(=O)O)CC(=O)O)CC(=O)O

Row | IC50 | Compound
53 | > 46 µM | O=C(O)CCC(=O)C(=O)O
54 | > 46 µM | CCCCC[C@H](O)/C=C/[C@@H]1[C@@H](C/C=C\CCCC(=O)O)[C@@H](O)C[C@H]1O.COC(N)(CO)CO
55 | > 46 µM | CN1CCOC(c2ccccc2)c2ccccc2C1.Cl (configuration not stated)
56 | > 46 µM | CC(C)(Oc1ccc(C2CCCc3ccccc32)cc1)C(=O)O (configuration not stated)
57 | > 46 µM | O=c1[nH]cc(F)c(=O)[nH]1
58 | > 46 µM | Cc1cc(O)c(C(C)C)cc1Cl
59 | > 46 µM | C[C@]12C=CC(=O)C=C1CC[C@H]1[C@@H]3C[C@@H](O)[C@](O)(C(=O)CO)[C@@]3(C)C[C@H](O)[C@@]12F
60 | > 46 µM | c1ccc2c(c1)Sc1ccccc1N2CCN1CCCC1
61 | > 46 µM | COc1cc(C(=O)N2CCOCC2)cc(OC)c1OC
62 | > 46 µM | O=C([O-])C[C@H](O)C[C@H](O)/C=C/c1c(C2CC2)nc2ccccc2c1-c1ccc(F)cc1.O=C([O-])C[C@H](O)C[C@H](O)/C=C/c1c(C2CC2)nc2ccccc2c1-c1ccc(F)cc1.[Ca+2]
63 | > 46 µM | C=C1CC[C@@H]2[C@](C)(CO)[C@H](O)CC[C@@]2(C)[C@@H]1C/C=C1/C(=O)OC[C@H]1O
64 | > 46 µM | Cl.OC(CCN1CCCC1)(c1ccccc1)C1CCCCC1 (configuration not stated)
65 | > 46 µM | O=C(O)c1ccc[n+]([O-])c1
66 | > 46 µM | CC(C)(C)C(=O)OCOP(=O)(COCCn1cnc2c(N)ncnc21)OCOC(=O)C(C)(C)C
67 | > 46 µM | CNCC(O)c1ccc(OC(=O)C(C)(C)C)c(OC(=O)C(C)(C)C)c1.Cl (configuration not stated)
68 | > 46 µM | Nc1ccc(S(=O)(=O)Nc2ccc(Cl)nn2)cc1
69 | > 46 µM | C[C@@]1(CC2)[C@H](OC(C)=O)C[C@H]2[C@](C)1C
70 | > 46 µM | Cc1c(C)n(Cc2ccccc2)c2ccc(C(=O)OCCN(C)C)cc12
71 | > 46 µM | CCOc1ccccc1C(N)=O
72 | > 46 µM | CC(C(O)c1ccc(O)cc1)N1CCC(Cc2ccccc2)CC1 (configuration not stated)
73 | > 46 µM | CC(=O)[C@]2(CC[C@H]3[C@@H]4C[C@H](C)\C1=C\C(=O)CC[C@]1(C)[C@H]4CC[C@]23C)OC(C)=O
74 | > 46 µM | CN1CCN(c2c(F)cc3c(=O)c(C(=O)O)cn4c3c2OCN4C)CC1
75 | > 46 µM | COc1cc(-c2ccc(=O)[nH]n2)ccc1OC(F)F
76 | > 46 µM | CC/C(=C(/CC)c1ccc(OP(=O)(O)O)cc1)c1ccc(OP(=O)(O)O)cc1

Row | Compound | IC50
77 | C=C1CC[C@@]2(O)[C@H]3Cc4ccc(O)c5c4[C@@]2(CCN3CC2CC2)[C@H]1O5 | > 46 µM
78 | CC(C)c1cccc(C(C)C)c1O | > 46 µM
79 | O=[C@@](OCN2C(N(CC#C)CC2=O)=O)[C@H]1C(C)(C)[C@@H]1\C=C(C)/C | > 46 µM
80 | Cc1ncc2n1-c1ccc(Cl)cc1C(c1ccccc1F)=NC2.Cl | > 46 µM
81 | COc1ccc(Cc2nccc3cc(OC)c(OC)cc23)cc1OC.Cl | > 46 µM
82 | CC(C)(C)NCC(O)c1cc(O)cc(O)c1.CC(C)(C)NCC(O)c1cc(O)cc(O)c1.O=S(=O)(O)O (configuration not stated) | > 46 µM
83 | O=C(O)CCCc1ccc(N(CCCl)CCCl)cc1 | > 46 µM
84 | CCNC(C)Cc1cccc(C(F)(F)F)c1 (configuration not stated) | > 46 µM
85 | CC(C)CCON=O | > 46 µM
86 | BrC2=CC=C(C=C2)[C@@H]([C@@]1=CC=CC=N1)CCN(C)C.O=C(O)/C=C\C(O)=O | > 46 µM
87 | NC(=O)OCCCc1ccccc1 | > 46 µM
88 | O[C@@H]([C@H](C)NC)[C@@]1=CC=CC=C1.Cl | > 46 µM
89 | COC1CC(=C(c2cccs2)c2cccs2)C[N+](C)(C)C1.[Br-] (configuration not stated) | > 46 µM
90 | COP(=S)(OC)Oc1ccc(SC)c(C)c1 | > 46 µM
91 | CC(Cc1ccccc1)NC=O (configuration not stated) | > 46 µM
92 | O=CC=O | > 46 µM
93 | O=C1N([C@@H](CC8=CC=CC=C8)C(N3CCC[C@@]23[H])=O)[C@@]2(O)O[C@]([C@H](C)C)1N[C@]([C@@H]6C[C@]([C@]7([H])N(C)C6)([H])C5=C4C(C7)=CNC4=CC=C5)=O | > 46 µM
94 | CCCCC/C=C\C/C=C\C/C=C\C/C=C\CCCC(=O)NCC(=O)O | > 46 µM
95 | COC(=O)C(c1ccccc1)C1CCCCN1.Cl (configuration not stated) | > 46 µM
96 | CCC1(c2ccccc2)C(=O)NC(=O)N(C)C1=O (configuration not stated) | > 46 µM
97 | O[C@H]1[C@@H]([C@H](O)CO)O[C@H]2[C@@H]1O[C@H]([C@@](Cl)(Cl)Cl)O2 | > 46 µM
98 | NC(=O)CS(=O)C(c1ccccc1)c1ccccc1 (configuration not stated) | > 46 µM
99 | [O-]S(=O)(=O)OC.C[N+]1(C)CC\C(CC1)=C(\c2ccccc2)c3ccccc3 | > 46 µM
100 | Br.COc1c2c(cc3c1OCO3)CCN(C)C2 | > 46 µM
101 | CN1C(=O)CCS(=O)(=O)C1c1ccc(Cl)cc1 (configuration not stated) | > 46 µM
102 | CCOC(=O)CC(SP(=S)(OC)OC)C(=O)OCC (configuration not stated) | > 46 µM
